Measured values: patent publication US20110223177A1, “TREATMENT OF FIBROTIC EYE DISORDERS” (UNIVERSITY OF EAST ANGLIA, priority 2008, published 2011)
Entries after “also recorded” stand apart in the source; their conditions may differ.

Columns and labels:
[1] = test system: human lens epithelial cell line FHL124; experiment: FHL124 patch growth/contraction assay; assay type: cell-based; settings: FHL 124 patches
Experimental: FIG. 3. TGF-β-induced matrix contraction is suppressed by the MLCK inhibitor ML7. FHL 124 cells were seeded to form patches and maintained in the following conditions: EMEM (Eagle's minimal essential medium—standard culture medium) supplemented with 5% FCS (fetal calf serum—control)±15 μM ML7 (myosin light chain kinase inhibitor) (Calbiochem) for a 72 hour experimental period. In the graph, each left hand bar of the bar pairs reports the result in the absence of ML7 (indicated as “−15 uM ML-7” in the key) and the right hand bar reports the result in the presence of 15 μM ML7 (indicated as “[…]” in the key). Please note that numerical data can be obtained from these patches, which can be scrutinized by statistical analysis.
FIG. 4. TGF-β-induced matrix contraction is promoted by the MLCP inhibitor tautomycin (Calbiochem). FHL 124 cells were seeded to form patches and maintained in the following conditions: EMEM (standard culture medium) supplemented with 5% FCS (control)±50 nM tautomycin (myosin phosphatase inhibitor); control+10 ng/ml TGFβ1±50 nM tautomycin; control+10 ng/ml TGFβ2±50 nM tautomycin for a 48 hour experimental period. […]
FHL124 cells were seeded at 4 sites on a tissue culture dish at 5000 cells per site and maintained in EMEM supplemented with 5% FCS until confluent regions spanning approximately 5 mm developed. […] The cells were then washed in PBS and stained with Coomassie brilliant blue (a total protein dye) for 30 minutes to enable patches to be visualised and measured. […] Images of patches were captured on a CCD camera using GeneSnap and analysed using Scion image. After the patch area was measured, PBS medium was aspirated from the culture dish and replaced with 1 ml of 70% ethanol allowing Coomassie blue dye within the cells to be dissolved. […] A 200 μl sample of dye from each dish was placed in a clear plastic 96 well microtitre plate and the absorbance read at 550 nm using a plate reader. […]

[2] = test system: phosphorylated (active) myosin in FHL124 cells; experiment: Western blot detection of phosphorylated (active) myosin in response to TGF-β; assay type: cell-based, human; settings: 15 μM ML7, 10 ng/ml TGF-β2, FHL124 cells
Experimental: FIG. 2. Western blot detection of phosphorylated (active) myosin in response to 10 ng/ml TGF-β2 (Sigma, Poole, Dorset, UK). The data presented are pooled from 3 separate experiment. Each left hand bar of the bar pairs reports the result in the absence of ML7 (indicated as “−15 uM ML-7” in the key) and the right hand bar reports the result in the presence of 15 μM ML7 (indicated as “+15 uM ML-7” in the key). Beta actin was used as a control for equivalent protein amounts. * Indicates a significant difference from untreated control group (p<0.05; student's t-test).
FHL-124 cells were washed with 1.5 ml PBS then lysed on ice in 0.5 mls Daubs lysis buffer; (50 mM HEPES pH 7.5, 150 mM NaCl, 1% Triton X-100, 1 mM EDTA, 10% glycerol, 10 mM sodium pyrophosphate, 2 mM sodium orthovanadate, 10 mM sodium fluoride, 250 mls ddH2O, 1 mM phenylmethylsulfonylfluoride and 10 μg/ml aprotinin. Lysates were pre-cleared by centrifuging at 13000 rpm at 4° C. for 10 min, and the protein content of the soluble fraction will be assayed by Bicinchoninic (BCA) protein assay. Equal amounts of protein per sample were loaded onto 10% SDS-PAGE gels for electrophoresis and transferred onto a polyvinylidene fluoride (PVDF) membrane with a BIO-RAD Trans-Blot semi-dry Transfer Cell. […] Gels were scanned using an HP scanjet 5470c and band intensity determined with Kodak 1D 3.5 software.

human lens capsular bags = experiment: Human lens capsular bag model; assay type: cell-based
Experimental: FIG. 7. The effect of MLCK inhibition (using 15 μM ML7) on cell coverage of the previously cell-free posterior capsule of human capsular bags following 7 days of culture. The data represent Mean SEM (n=4). * Indicates a significant difference from control group. N.B. Control conditions are EMEM supplemented with 5% serum and 10 ng/ml TGFβ.
FIG. 8. High (top row) and low power (bottom row) phase-contrast micrographs showing cells growing on the lens capsular bag treated with 10 ng/mL TGF-β in the presence or absence of ML7 (15 μM). Contraction (wrinkles) of the lens capsular bag is evident when treated with 10 ng/ml TGF-β alone.
The model first described by Liu, C. S. C., et al., (Invest. Ophthalmol. Vis. Sci. (1996), 37, pages, 906-914) was employed. Following removal of corneo-scleral discs for transplantation purposes, human donor eyes from the East Anglian Eye Banks, UK (obtained with full ethical approval—COREC form approved 1 Dec. 2004. Ref04/Q0102/57) were used to perform a sham cataract operation. The resulting capsular bag was then dissected free of the zonules and secured on a sterile 35 mm polymethylmethacrylate (PMMA) petri dish. […] Coverage and matrix modification of the previously cell-free posterior capsule were captured on a daily basis using low-power phase microscopy and quantified using analysis software. […]

[3] = test system: cells growing on the lens capsular bag; experiment: Immunocytochemical analysis of capsular bags at end point; assay type: cell-based, human; settings: 15 μM ML7, 10 ng/ml TGF-β
Experimental: FIG. 9. […] The fields of view represent 448×342 μm.
Preparations were fixed for 30 minutes in 4% formaldehyde in PBS and permeabilised in PBS containing 0.5% Triton-X100, also for 30 minutes. Anti-CPI-17 and Anti-alpha smooth muscle actin was diluted 1:100 and applied for 60 min at 35° C., followed by washing. CPI-17 was visualised with ALEXA 488-conjugated secondary antibodies (Molecular Probes, Leiden, Netherlands). The F-actin cytoskeleton was stained with Texas Red-X-phalloidin and chromatin using DAPI (Molecular Probes, Leiden, Netherlands) for 10 min at room temperature. The stained preparations were again washed extensively, floated onto microscope slides and mounted in Hydromount mounting medium (National Diagnostics, Hull, UK). Images were viewed with a Zeiss epifluorescence microscope and Axiovision software.
From the work on the cell line we chose to test ML7 i.e. the MLCK inhibitor. These studies were carried out on separate donors using a match paired format; one capsular bag was maintained in TGF-β and serum supplemented medium, while the other was maintained in TGF-β and serum supplemented medium plus 15 μM ML7. There is great consistency in cell behaviour from one eye to another from an individual donor; therefore the effects observed are due to the presence or absence of the inhibitor. […] This growth inhibition could be useful in the treatment of PCO as growth across the capsule is a critical component in the development of the condition, but this is a retardation of cell growth rather than ablation. […] In addition, we have carried out immunocytochemical analysis of the capsular bags at end point (FIG. 9).

Compound | TGF-β-induced matrix contraction ([1]; 15 μM ML7, 72 hour, EMEM + 5% FCS) | TGFβ-induced myosin activation (phosphorylated myosin) [2] | TGF-β-induced matrix contraction (wrinkles) of the lens capsular bag (human lens capsular bags; 15 μM ML7, 10 ng/ml TGF-β) | cell coverage of the previously cell-free posterior capsule (human lens capsular bags; 15 μM ML7, 7 days of culture, EMEM + 5% serum + 10 ng/ml TGFβ, control group 100% cover) [%] | distribution of cell nuclei [3] | general organization of the cells [3] | αSMA levels versus control bags [3] | TGF-β-induced matrix contraction ([1]; 50 nM tautomycin, 10 ng/ml TGFβ1 or TGFβ2, 48 hour) | TGF-β-induced matrix contraction ([1]; 50 nM tautomycin, 10 ng/ml TGFβ1 or TGFβ2, 48 hour, listed as Tautomycin)
O=S(=O)(c1cccc2c(I)cccc12)N1CCCNCC1 [ML7, (5-iodonaphthalene-1-sulfonyl)homopiperazine] | significantly suppresses TGF-β-induced contraction; also recorded: significant reduction of TGF-β-induced contraction | significantly inhibited TGFβ-induced myosin activation | does not give rise to wrinkle formation; also recorded: can suppress TGF-β-induced matrix contraction | 80 | even distribution of cell nuclei | cobblestone appearance | similar | – | –
CO[C@H]([C@H](O)CC(=O)[C@@H](C)[C@@H](O)CC[C@@H](C)[C@@H]1O[C@]2(CC[C@@H](C)[C@H](CC[C@H](C)C(C)=O)O2)CC[C@@H]1C)[C@H](OC(=O)C[C@@H](O)C1=C(C)C(=O)OC1=O)C(C)C [tautomycin] | – | – | – | – | – | – | – | speeded up the rate of contraction | significantly increases TGF-β-induced contraction
